Patent US20070026080A1, “Manufacturing process for tigecycline” (Wyeth, priority 2005, published 2007)

Test: Strength and degradation profile of tigecycline 20 mg/mL bulk solutions by reversed phase HPLC (effect of temperature, time, pH, dissolved oxygen; Runs A to O)
Type: physicochemical
Details: pH 7.7, Oxygen = 0.1 mg/L
Description: The contents of the sample vials are dissolved in diluent. The sample solution is diluted, if necessary, and chromatographed on a reversed phase column using gradient elution. Impurities are determined by comparing the impurity peak areas in the sample preparation chromatogram to the average area of tigecycline peaks in the standard preparation chromatograms obtained concomitantly.
Chromatographic Column—Length about 15 cm, inside diameter about 4.6 mm, packed with Inertsil ODS2, 5 μm size particles or equivalent.
Detector—Ultraviolet spectrophotometric detector capable of operating at 248 nm with a sensitivity of about 0.5 absorbance units full scale.
The results of additional studies to investigate the effect of processing parameters such as temperature, time, and dissolved oxygen content on the purity profile of tigecycline solutions using the following materials, methods and procedures are presented in Tables A to O.
The experiments were run in plastic glove bags under normal laboratory light conditions. Plastic glove boxes will be used to control the headspace of the beakers. The batch size was 200 mL. • 1. Prepare the glove bag with a mixture of nitrogen and air to achieve an oxygen level in the solution as per the design. • 2. Place the jacketed beaker on the magnetic stirrer. Connect it to the cooler. Set the cooler to the desired set point. • 3. Add 200 mL of SWFI in to the beaker. Allow equilibrating. Measure the temperature and oxygen content. When it reaches the desired condition, add accurately weighed API and mix until dissolved. If necessary use spatula to aid dissolution. For pH adjustments, use 4 mL of either 0.1N NaOH or 0.1N HCl and 196 mL of WFI for manufacture. • 4. After complete dissolution, Transfer about 5.5 mL of Solution in vials and stopper them. These vials will be stoppered at the appropriate headspace conditions. Place the vials in appropriate temperature conditions. • 5. Sample the vials at 1, 4, 8, 10, 12 and 24 hours. Send the samples for analysis. Freeze the 10, 12 and 24 samples at −20° C. for analysis the following day. • 6. Measure pH and record color of the solution at each time point. Results
The 1-hour samples were taken directly from the beakers. Samples for later time points were collected in stoppered vials processed in the atmosphere of the bag in order to simulate the headspace conditions then placed in water baths or refrigerator to maintain there respective temperature conditions. This was done to maintain safety in the lab. Disposable plastic glove bags require constant flow of a mixture of nitrogen and air to maintain headspace oxygen level that will result in the desired dissolved oxygen (DO) content in the sample. The pH of samples was measured at each sample points.
Strength and degradation profile was analyzed by HPLC as described above. […] Degradation was slightly higher at higher temperature condition.

SMILES: CN(C)c1cc(NC(=O)CNC(C)(C)C)c(O)c2c1C[C@H]1C[C@H]3[C@H](N(C)C)C(O)=C(C(N)=O)C(=O)[C@@]3(O)C(O)=C1C2=O [Tigecycline]
- RRT 1.45 (Run #L, 2° C., 12 Hrs): 0.07%
- RRT 1.58 (Run #L, 2° C., 12 Hrs): BRL (BRL means below reporting limit (meaning less than 0.05% of tigecycline peak))
- RRT 1.64 Mino (Run #L, 2° C., 12 Hrs): 0.14%
- RRT 1.67 MW = 556 (Run #L, 2° C., 12 Hrs): BRL (BRL means below reporting limit (meaning less than 0.05% of tigecycline peak))
- RRT 1.85 MW = 597 (Run #L, 2° C., 12 Hrs): 0.08%
- Strength (Run #L, 2° C., 12 Hrs): 19.448 mg/mL
- Total (Run #L, 2° C., 12 Hrs): 0.58%
- RRT 0.12 MW = 633 (Run #L, 2° C., 24 Hrs): BRL (BRL means below reporting limit (meaning less than 0.05% of tigecycline peak))
- RRT 0.23 MW = 572 (Run #L, 2° C., 24 Hrs): BRL (BRL means below reporting limit (meaning less than 0.05% of tigecycline peak))
- RRT 0.50 MW = 601 (Run #L, 2° C., 24 Hrs): BRL (BRL means below reporting limit (meaning less than 0.05% of tigecycline peak))
- RRT 0.55 MW = 583 (Run #L, 2° C., 24 Hrs): BRL (BRL means below reporting limit (meaning less than 0.05% of tigecycline peak))
- RRT 0.58 (Run #L, 2° C., 24 Hrs): 0.09%
- RRT 0.64 9-Amino (Run #L, 2° C., 24 Hrs): BRL (BRL means below reporting limit (meaning less than 0.05% of tigecycline peak))
- RRT 0.74 Epimer (Run #L, 2° C., 24 Hrs): 0.21%
- RRT 0.76 (Run #L, 2° C., 24 Hrs): BRL (BRL means below reporting limit (meaning less than 0.05% of tigecycline peak))
- RRT 0.78 MW = 557 (Run #L, 2° C., 24 Hrs): BRL (BRL means below reporting limit (meaning less than 0.05% of tigecycline peak))
- RRT 1.12 (Run #L, 2° C., 24 Hrs): BRL (BRL means below reporting limit (meaning less than 0.05% of tigecycline peak))
- RRT 1.45 (Run #L, 2° C., 24 Hrs): 0.08%
- RRT 1.58 (Run #L, 2° C., 24 Hrs): BRL (BRL means below reporting limit (meaning less than 0.05% of tigecycline peak))
- RRT 1.64 Mino (Run #L, 2° C., 24 Hrs): 0.13%
- RRT 1.67 MW = 556 (Run #L, 2° C., 24 Hrs): BRL (BRL means below reporting limit (meaning less than 0.05% of tigecycline peak))
- RRT 1.85 MW = 597 (Run #L, 2° C., 24 Hrs): 0.09%
- Strength (Run #L, 2° C., 24 Hrs): 19.156 mg/mL
- Total (Run #L, 2° C., 24 Hrs): 0.61%
- RRT 0.12 MW = 633 (Run #M, 8° C., 1 Hrs): BRL (BRL means below reporting limit (meaning less than 0.05% of tigecycline peak))
- RRT 0.23 MW = 572 (Run #M, 8° C., 1 Hrs): BRL (BRL means below reporting limit (meaning less than 0.05% of tigecycline peak))
- RRT 0.50 MW = 601 (Run #M, 8° C., 1 Hrs): BRL (BRL means below reporting limit (meaning less than 0.05% of tigecycline peak))
- RRT 0.55 MW = 583 (Run #M, 8° C., 1 Hrs): BRL (BRL means below reporting limit (meaning less than 0.05% of tigecycline peak))
- RRT 0.58 (Run #M, 8° C., 1 Hrs): 0.08%
- RRT 0.64 9-Amino (Run #M, 8° C., 1 Hrs): BRL (BRL means below reporting limit (meaning less than 0.05% of tigecycline peak))
- RRT 0.74 Epimer (Run #M, 8° C., 1 Hrs): 0.20%
- RRT 0.76 (Run #M, 8° C., 1 Hrs): 0.06%
- RRT 0.78 MW = 557 (Run #M, 8° C., 1 Hrs): BRL (BRL means below reporting limit (meaning less than 0.05% of tigecycline peak))
- RRT 1.12 (Run #M, 8° C., 1 Hrs): BRL (BRL means below reporting limit (meaning less than 0.05% of tigecycline peak))
- RRT 1.45 (Run #M, 8° C., 1 Hrs): BRL (BRL means below reporting limit (meaning less than 0.05% of tigecycline peak))
- RRT 1.58 (Run #M, 8° C., 1 Hrs): BRL (BRL means below reporting limit (meaning less than 0.05% of tigecycline peak))
- RRT 1.64 Mino (Run #M, 8° C., 1 Hrs): 0.14%
- RRT 1.67 MW = 556 (Run #M, 8° C., 1 Hrs): BRL (BRL means below reporting limit (meaning less than 0.05% of tigecycline peak))
- RRT 1.85 MW = 597 (Run #M, 8° C., 1 Hrs): BRL (BRL means below reporting limit (meaning less than 0.05% of tigecycline peak))
- Strength (Run #M, 8° C., 1 Hrs): 19.270 mg/mL
- Total (Run #M, 8° C., 1 Hrs): 0.47%
- RRT 0.12 MW = 633 (Run #M, 8° C., 4 Hrs): BRL (BRL means below reporting limit (meaning less than 0.05% of tigecycline peak))
- RRT 0.23 MW = 572 (Run #M, 8° C., 4 Hrs): BRL (BRL means below reporting limit (meaning less than 0.05% of tigecycline peak))
- RRT 0.50 MW = 601 (Run #M, 8° C., 4 Hrs): BRL (BRL means below reporting limit (meaning less than 0.05% of tigecycline peak))
- RRT 0.55 MW = 583 (Run #M, 8° C., 4 Hrs): BRL (BRL means below reporting limit (meaning less than 0.05% of tigecycline peak))
- RRT 0.58 (Run #M, 8° C., 4 Hrs): 0.07%
- RRT 0.64 9-Amino (Run #M, 8° C., 4 Hrs): BRL (BRL means below reporting limit (meaning less than 0.05% of tigecycline peak))
- RRT 0.74 Epimer (Run #M, 8° C., 4 Hrs): 0.23%
- RRT 0.76 (Run #M, 8° C., 4 Hrs): 0.06%
- RRT 0.78 MW = 557 (Run #M, 8° C., 4 Hrs): BRL (BRL means below reporting limit (meaning less than 0.05% of tigecycline peak))
- RRT 1.12 (Run #M, 8° C., 4 Hrs): BRL (BRL means below reporting limit (meaning less than 0.05% of tigecycline peak))
- RRT 1.45 (Run #M, 8° C., 4 Hrs): 0.06%
- RRT 1.58 (Run #M, 8° C., 4 Hrs): BRL (BRL means below reporting limit (meaning less than 0.05% of tigecycline peak))
- RRT 1.64 Mino (Run #M, 8° C., 4 Hrs): 0.08%
- RRT 1.67 MW = 556 (Run #M, 8° C., 4 Hrs): BRL (BRL means below reporting limit (meaning less than 0.05% of tigecycline peak))
- RRT 1.85 MW = 597 (Run #M, 8° C., 4 Hrs): 0.06%
- Strength (Run #M, 8° C., 4 Hrs): 19.340 mg/mL
- Total (Run #M, 8° C., 4 Hrs): 0.57%
- RRT 0.12 MW = 633 (Run #M, 8° C., 8 Hrs): BRL (BRL means below reporting limit (meaning less than 0.05% of tigecycline peak))
- RRT 0.23 MW = 572 (Run #M, 8° C., 8 Hrs): BRL (BRL means below reporting limit (meaning less than 0.05% of tigecycline peak))
- RRT 0.50 MW = 601 (Run #M, 8° C., 8 Hrs): BRL (BRL means below reporting limit (meaning less than 0.05% of tigecycline peak))
- RRT 0.55 MW = 583 (Run #M, 8° C., 8 Hrs): BRL (BRL means below reporting limit (meaning less than 0.05% of tigecycline peak))
- RRT 0.58 (Run #M, 8° C., 8 Hrs): 0.08%
- RRT 0.64 9-Amino (Run #M, 8° C., 8 Hrs): BRL (BRL means below reporting limit (meaning less than 0.05% of tigecycline peak))
- RRT 0.74 Epimer (Run #M, 8° C., 8 Hrs): 0.24%
- RRT 0.76 (Run #M, 8° C., 8 Hrs): 0.06%
- RRT 0.78 MW = 557 (Run #M, 8° C., 8 Hrs): BRL (BRL means below reporting limit (meaning less than 0.05% of tigecycline peak))
- RRT 1.12 (Run #M, 8° C., 8 Hrs): BRL (BRL means below reporting limit (meaning less than 0.05% of tigecycline peak))
- RRT 1.45 (Run #M, 8° C., 8 Hrs): 0.07%
- RRT 1.58 (Run #M, 8° C., 8 Hrs): BRL (BRL means below reporting limit (meaning less than 0.05% of tigecycline peak))
- RRT 1.64 Mino (Run #M, 8° C., 8 Hrs): 0.11%
- RRT 1.67 MW = 556 (Run #M, 8° C., 8 Hrs): BRL (BRL means below reporting limit (meaning less than 0.05% of tigecycline peak))
- RRT 1.85 MW = 597 (Run #M, 8° C., 8 Hrs): 0.06%
- Strength (Run #M, 8° C., 8 Hrs): 19.238 mg/mL
- Total (Run #M, 8° C., 8 Hrs): 0.62%
- RRT 0.12 MW = 633 (Run #M, 8° C., 10 Hrs): BRL (BRL means below reporting limit (meaning less than 0.05% of tigecycline peak))
- RRT 0.23 MW = 572 (Run #M, 8° C., 10 Hrs): BRL (BRL means below reporting limit (meaning less than 0.05% of tigecycline peak))
- RRT 0.50 MW = 601 (Run #M, 8° C., 10 Hrs): BRL (BRL means below reporting limit (meaning less than 0.05% of tigecycline peak))
- RRT 0.55 MW = 583 (Run #M, 8° C., 10 Hrs): 0.09%
- RRT 0.58 (Run #M, 8° C., 10 Hrs): 0.07%
- RRT 0.64 9-Amino (Run #M, 8° C., 10 Hrs): BRL (BRL means below reporting limit (meaning less than 0.05% of tigecycline peak))
- RRT 0.74 Epimer (Run #M, 8° C., 10 Hrs): 0.25%
- RRT 0.76 (Run #M, 8° C., 10 Hrs): 0.05%
- RRT 0.78 MW = 557 (Run #M, 8° C., 10 Hrs): BRL (BRL means below reporting limit (meaning less than 0.05% of tigecycline peak))
